Assay results: ChEMBL document CHEMBL3997834, “Phenolic compounds isolated from Dioscorea zingiberensis protect against pancreatic acinar cells necrosis induced by sodium taurocholate” (Bioorg Med Chem Lett, 2017)
Activity calls are given as the source filed them. The calls are words filed in the database; no cut-off is given here.

Legend:
[1] = system: Pancreatic acinar cell; assay: (§1) Cytoprotective activity against sodium taurocholate-induced necrosis in Balb/C mouse pancreatic acinar cells at 0.5 mM after 40 mins by propidium iodide/Hoechst 33342 staining-based fluorescence microscopic method; format: functional
[2] = Cytoprotective activity against sodium taurocholate-induced necrosis in Balb/C mouse pancreatic acinar cells assessed as intracellular ATP production at 0.5 mM measured at 20 mins by luminescence assay (reference value: 39.9%); format: functional, Pancreatic acinar cell
[3] = Cytoprotective activity against sodium taurocholate-induced necrosis in Balb/C mouse pancreatic acinar cells assessed as intracellular ATP production at 0.5 mM measured at 40 mins by luminescence assay (reference value: 21.5%); format: functional, Pancreatic acinar cell
[4] = system: Pancreatic acinar cell; assay: Cytoprotective activity against sodium taurocholate-induced necrosis in Balb/C mouse pancreatic acinar cells at 1 mM after 40 mins by propidium iodide/Hoechst 33342 staining-based fluorescence microscopic method; format: functional
[5] = Cytotoxicity against Balb/C mouse pancreatic acinar cells at 1 mM after 40 mins by propidium iodide/Hoechst 33342 staining-based fluorescence microscopic method; conditions: pancreatic acinar cell, 1000 µM
[6] = as §1; format: functional, Pancreatic acinar cell
[7] = Cytoprotective activity against sodium taurocholate-induced necrosis in Balb/C mouse pancreatic acinar cells assessed as decrease in intracellular reactive oxygen species generation at 0.5 mM measured for 20 mins by H2-DCFDA probe-based fluorescence assay relative to control; format: functional, Pancreatic acinar cell; parameters: scale not given: the % may be the effect or the level left
[8] = system: Pancreatic acinar cell; assay: Cytoprotective activity against sodium taurocholate-induced necrosis in Balb/C mouse pancreatic acinar cells at 5 mM after 40 mins by propidium iodide/Hoechst 33342 staining-based fluorescence microscopic method; format: functional

COc1cc(O)cc(CCc2ccc(OC)c(O)c2)c1
Activity [1]: inactive

COc1c(O)cc(CCc2ccccc2)cc1O
Activity [1]: inactive

Oc1ccc(CC[C@@H](O)C[C@H](O)CCc2ccc(O)c(O)c2)cc1
Activity [2]: 59.4%
Activity [3]: 38.3%
Activity [4]: inactive
Activity [5]: Toxic
Activity [6]: 19%
Activity [7]: 27.9%

COc1cc(CC[C@@H](O)C[C@H](O)CCc2ccc(O)c(OC)c2)ccc1O
Activity [1]: Active

COc1ccc2c(c1O)-c1c(cc(O)cc1OC)CC2
Activity [1]: inactive

COc1ccc(CCc2cc(O)c(OC)c(O)c2)cc1
Activity [1]: inactive

Cn1c(=O)c2c(ncn2C)n(C)c1=O
Activity [8]: Active

COc1cc(CC[C@@H](O)C[C@H](O)CCc2ccc(O)cc2)ccc1O
Activity [1]: Active

Oc1ccc(CC[C@@H](O)C[C@H](O)CCc2ccc(O)cc2)cc1
Activity [1]: Active
